From PubChem BioAssay (NCI)
Several values for one entry are separate records, joined by “and”; a condition that tells them apart may be missing. Identical values can stand only once.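 The compound was tested at five concentrations on cells cultured in 96-well plates, with a 48-hour exposure period. GI50 = concentration required for 50% inhibition of growth. The concentration for full growth arrest is given as TGI.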

Legend:
Experiment in all cases: NCI tumour cell line growth inhibition, 48 h
NCI-H522 lung = tested on: NCI-H522 lung
786-0 renal = tested on: 786-0 renal
OVCAR-4 ovarian = tested on: OVCAR-4 ovarian
UACC-257 melanoma = tested on: UACC-257 melanoma
MCF7 breast = tested on: MCF7 breast
LOX IMVI melanoma = tested on: LOX IMVI melanoma
U251 CNS = tested on: U251 CNS
OVCAR-3 ovarian = tested on: OVCAR-3 ovarian
HOP-62 NSCLC = tested on: HOP-62 NSCLC
K-562 leukemia = tested on: K-562 leukemia

| SMILES | GI50 (NCI-H522 lung) | TGI (NCI-H522 lung) [µM] | GI50 (786-0 renal) | TGI (786-0 renal) | GI50 (OVCAR-4 ovarian) | TGI (OVCAR-4 ovarian) | GI50 (UACC-257 melanoma) | TGI (UACC-257 melanoma) | GI50 (MCF7 breast) | TGI (MCF7 breast) | GI50 (LOX IMVI melanoma) | TGI (LOX IMVI melanoma) | GI50 (U251 CNS) | TGI (U251 CNS) | GI50 (OVCAR-3 ovarian) | TGI (OVCAR-3 ovarian) | GI50 (HOP-62 NSCLC) | TGI (HOP-62 NSCLC) | GI50 (K-562 leukemia) | TGI (K-562 leukemia) |
| --- | --- | --- | --- | --- | --- | --- | --- | --- | --- | --- | --- | --- | --- | --- | --- | --- | --- | --- | --- | --- |
| CCC[CH2][Sn]1([CH2]CCC)[O]C(=O)c2ccc(N)cc2[O]1 | 0.048 µM | 0.179 | 0.41 µM | 1.61 µM | 1.29 µM | 2.59 µM | 0.548 µM | 2.11 µM | 0.152 µM | 0.738 µM | 0.287 µM | 1.45 µM | 0.471 µM | 1.81 µM | 1.24 µM | 2.52 µM | 1.35 µM | 2.82 µM | 0.111 µM | 8.5 µM |
| O=C(N/N=C/c1ccc(Cl)cc1)c1[nH]c2ccc(Cl)cc2c1-c1ccccc1 | 0.0458 µM | 0.167 | 0.294 µM | > 34.7 µM | 0.183 µM | > 79.3 µM | 7.42 µM | > 100 µM | 0.115 µM | 21.7 µM | 0.12 µM | > 37.4 µM | 0.255 µM | 4.68 µM | 0.0265 µM | 0.0584 µM | 0.494 µM | 36.4 µM | 0.206 µM | 12.7 µM |
| Oc1c(Cl)cc(Cl)cc1Sc1cc(Cl)cc(Cl)c1O | 2.49 µM | 7.03 | 3.22 µM and 2.83 µM | 10.4 µM and 7.85 µM | 3.97 µM and 3.2 µM | 14.3 µM and 11.7 µM | 2.65 µM and 1.94 µM | 7.86 µM and 5.71 µM | 3.06 µM and 2.88 µM | 10.5 µM and 10.2 µM | 2.93 µM and 3 µM | 11.2 µM and 10.8 µM | 3.01 µM and 2.74 µM | 11.2 µM and 10.5 µM | 3.66 µM and 2.96 µM | 11.3 µM and 10.2 µM | 3.37 µM and 2.17 µM | 14.9 µM and 5.66 µM | 3.17 µM and 2.91 µM | 12 µM and 23.5 µM |
| COc1ccc(/C=C\c2cc(OC)c(OC)c(OC)c2)c(NS(=O)(=O)c2ccc(Cl)cc2)c1O | 0.0848 µM | 0.607 | 0.572 µM | 24.8 µM | 0.0973 µM | > 100 µM | 14.2 µM | 60.5 µM | 0.0384 µM | > 100 µM | 0.153 µM | 15.5 µM | 0.287 µM | 15.5 µM | 0.0602 µM | 10.7 µM | 0.671 µM | 46.1 µM | 0.0323 µM | 20.2 µM |
| CCOC(=O)Nc1nc2cc(OCC)ccc2s1 | 6.05 µM | > 100 | > 100 µM | > 100 µM | > 100 µM | > 100 µM | > 100 µM | > 100 µM | 5.01 µM | > 100 µM | > 47.4 µM | > 100 µM | 26.8 µM | > 100 µM | 35 µM | > 100 µM | 38.4 µM | > 100 µM | 3 µM | > 100 µM |
| C/C(=N\NC(=S)N1CCN(c2ccccn2)CC1)c1nccs1 | 0.0574 µM and 0.261 µM | 16.3 |  | 13 µM |  | 22.5 µM |  | 12.8 µM | 0.377 µM | 18.3 µM | 0.0952 µM | 2.42 µM |  | 9.8 µM | 0.00821 µM and < 0.0205 µM |  |  | 16.8 µM | 0.00649 µM | 6.33 µM |
| COC(=O)C(=O)C(C(=O)C(N)=O)c1nc2ccc(C(=O)c3ccccc3)cc2[nH]c1=O (stereo unspecified) |  | > 100 |  | > 100 µM |  | > 100 µM |  | > 100 µM |  | > 100 µM |  | > 100 µM |  | > 100 µM |  | > 100 µM |  | > 100 µM |  | > 100 µM |
| CCCCCCNC(=O)Oc1ccc(/C(=C(/C)Cc2ccc(OC)cc2)c2ccc(OCCN(C)C)cc2)cc1 | 5.61 µM | 10.6 | 4.97 µM | 9.49 µM | 5.02 µM | 10.3 µM | 6.42 µM | 11.9 µM | 1.29 µM | 6.98 µM | 4.39 µM | 8.8 µM | 3.61 µM | 7.9 µM | 4.93 µM | 9.79 µM | 6.18 µM | 11 µM | 1.1 µM | 3.63 µM |
| COc1ccc(NC(=O)n2nc(/C=C\c3ccc(O)c(OC)c3)cc2/C=C\c2ccc(O)c(OC)c2)cc1 | 1.76 µM | 12.7 | 4 µM | 24.3 µM | 5.72 µM | 90.7 µM | 16.7 µM | 64.8 µM | 3.03 µM | 17 µM | 3.95 µM | > 100 µM | 3.55 µM | 20.9 µM | 2.98 µM | 8.4 µM | 3.65 µM | 42.8 µM | 2.86 µM | 16.9 µM |
| CCCCCCNC(=O)n1cc(F)c(=O)[nH]c1=O | 10.7 µM | 25 | 10.6 µM | 23.4 µM | 14 µM | 39.1 µM | 4.22 µM | 26.4 µM | 0.65 µM | 16.8 µM | 2.06 µM | 16.3 µM | 4.27 µM | 17.5 µM | 11.1 µM | > 100 µM | 7.09 µM | 21.5 µM |  |  |
| CNCCNc1nc2ccccc2c2c(=O)c3cc(OC)ccc3sc12 | 1.73 µM | 3.56 | 1.7 µM | 3.18 µM | 1.68 µM | 3.22 µM | 1.89 µM | 3.75 µM | 1.54 µM | 3.1 µM | 1.51 µM | 2.88 µM | 1.5 µM | 2.92 µM | 1.84 µM | 3.43 µM | 1.49 µM | 3.22 µM |  |  |
| COc1nc(C)cc2c(=O)n(-c3ccccc3)n(CC(O)CN3CCN(c4ccc(Cl)cc4)CC3)c(=O)c12 (stereo unspecified) | 25.8 µM | > 50 | 25.8 µM | > 50 µM | 36.8 µM | > 50 µM |  |  | 46.1 µM | > 50 µM | > 50 µM | > 50 µM | 30.6 µM | > 50 µM | 34.3 µM | > 50 µM | 37.9 µM | > 50 µM | > 50 µM | > 50 µM |
| CCCCN(CC)c1ncnc2ccc(Br)cc12 | 21 µM | > 100 | 18.9 µM | 39.7 µM | 22.1 µM | > 100 µM |  |  | 24.6 µM | 75.2 µM | 17.9 µM | 38.7 µM | 18.2 µM | 44.9 µM | 15.8 µM | 32.5 µM | 16.9 µM | 34 µM | 10.4 µM | 51.1 µM |
